Source: US20090143279A1 (priority 2007, published 2009)
Like-named read-outs stand apart in the source and are kept apart here.

Assays:
[1] = system: OXPHOS gene expression; assay type: cell-based, mouse; conditions: for GE-HTS (composite Z-score): normalized score vs mock-treated (DMSO) wells
[2] = system: cellular dehydrogenase activity; conditions: for MTT (composite Z-score): normalized score vs mock-treated (DMSO) wells
[3] = system: C2C12 myotubes; conditions: for Viability (composite Z-score): normalized score vs mock-treated (DMSO) wells
[4] = system: nuOXPHOS transcripts; assay type: cell-based, mouse; conditions: for nucOX (composite Z-score): normalized score vs mock-treated (DMSO) wells
[5] = system: cytochrome c; assay type: cell-based, mouse; conditions: for cyt c (composite Z-score): normalized score vs mock-treated (DMSO) wells
[6] = system: mitochondrial membrane potential; assay type: cell-based, mouse; conditions: for ΔΨm (composite Z-score): normalized score vs mock-treated (DMSO) wells
[7] = system: reactive oxygen species; assay type: cell-based, mouse; conditions: for ROS (composite Z-score): normalized score vs mock-treated (DMSO) wells
[8] = system: mtOXPHOS transcripts; assay type: cell-based, mouse; conditions: for mitoOX (composite Z-score): normalized score vs mock-treated (DMSO) wells
[9] = composite Z-score vs mock-treated (DMSO) wells, concentration of each compound in μM
[10] = composite Z-score vs DMSO wells, Conc 20 μM
[11] = 20 μM, composite Z-score vs DMSO
[12] = normalized score (composite Z-score vs DMSO mock-treated wells), compound concentration (μM)
[13] = normalized composite Z-score vs mock-treated (DMSO) wells, Conc 20 μM
[14] = composite Z-score vs DMSO, Conc 20 μM
[15] = composite Z-score vs mock-treated (DMSO) wells, Conc 20 μM
[16] = 14.44 μM, composite Z-score vs DMSO

C=Cc1c(C)c2cc3nc(c4c5[n-]c(cc6nc(cc1[n-]2)C(C)=C6CC)c(C)c5C(=O)[C@@H]4C(=O)OC)[C@@H](CCC(=O)O)[C@@H]3C.[Mg+2] [chlorophyllide]
GE-HTS [1, 9]: 0.282
MTT [2, 9]: 0.307
Viability [3, 9]: −0.178
nucOX [4, 9]: 0.303
cyt c [5, 9]: −1.157
ΔΨm [6, 9]: −0.783
ROS [7, 9]: 1.042
mitoOX [8, 9]: 0.224

NS(=O)(=O)c1cc2c(cc1Cl)N=CNS2(=O)=O [chlorothiazide]
GE-HTS [1, 10]: −0.331
MTT [2, 10]: −0.711
Viability [3, 10]: 0.116
nucOX [4, 10]: −0.608
cyt c [5]: 0.431
cyt c [5, 10]: 0.566
ΔΨm [6, 10]: −0.831
ROS [7, 10]: 1.202
mitoOX [8, 10]: 0.221

Oc1c(Cl)cc(Cl)c2cccnc12 [chloroxine]
GE-HTS [1, 10]: −1.089
MTT [2, 10]: −2.014
Viability [3, 10]: −1.392
nucOX [4, 10]: −0.461
cyt c [5, 10]: −0.800
ΔΨm [6, 10]: 1.120
ROS [7, 10]: −2.934
mitoOX [8, 10]: −2.181

Cc1cc(O)cc(C)c1Cl [chloroxylenol]
GE-HTS [1, 11]: −0.811
MTT [2, 11]: −2.046
Viability [3, 11]: −0.639
nucOX [4, 11]: −0.857
cyt c [5, 11]: 0.499
ΔΨm [6, 11]: −0.917
ROS [7, 11]: 2.165
mitoOX [8, 11]: −0.614

OCC(O)COc1ccc(Cl)cc1 (stereo not shown) [chlorphensin]
GE-HTS [1, 12]: −0.696
MTT [2, 12]: −0.356
Viability [3, 12]: −1.132
nucOX [4, 12]: −0.613
cyt c [5, 12]: −0.522
ΔΨm [6, 12]: −0.419
ROS [7, 12]: 0.692
mitoOX [8, 12]: −0.766

NS(=O)(=O)c1cc(C2(O)NC(=O)c3ccccc32)ccc1Cl (stereo not shown) [chlorthalidone]
GE-HTS [1]: −0.236
GE-HTS [1, 11]: 0.793
MTT [2]: −1.736
MTT [2, 11]: −1.134
Viability [3]: 0.081
Viability [3, 11]: 0.308
nucOX [4]: −0.009
nucOX [4, 11]: 0.646
cyt c [5]: 0.531
cyt c [5, 11]: 0.066
ΔΨm [6]: −0.750
ΔΨm [6, 11]: −0.257
ROS [7]: 1.047
ROS [7, 11]: 1.655
mitoOX [8]: −0.641
mitoOX [8, 11]: 0.877

C[C@H](CCC(=O)O)[C@H]1CC[C@H]2[C@@H]3CCC4CCCC[C@]4(C)[C@H]3C=C[C@]12C (stereo partly shown) [chol-11-enic acid]
GE-HTS [1, 13]: −0.069
MTT [2, 13]: −1.164
Viability [3, 13]: −0.456
nucOX [4, 13]: −0.195
cyt c [5, 13]: 0.383
ΔΨm [6, 13]: −0.652
ROS [7, 13]: 0.737
mitoOX [8, 13]: 0.246

CC(C)CCC[C@@H](C)[C@H]1CC[C@H]2[C@@H]3C[C@@H](O)[C@@]4(O)C[C@@H](O)CC[C@]4(C)[C@H]3CC[C@]12C [cholestan-3beta,5alpha,6beta-triol]
GE-HTS (composite Z-score) ([1]; Conc 20 μM): 0.382
MTT (composite Z-score) ([2]; Conc 20 μM): 0.120
Viability (composite Z-score) ([3]; Conc 20 μM): −0.869
nucOX (composite Z-score) ([4]; Conc 20 μM): 0.523
cyt c (composite Z-score) ([5]; Conc 20 μM): 0.815
ΔΨm (composite Z-score) ([6]; Conc 20 μM): −0.575
ROS (composite Z-score) ([7]; Conc 20 μM): 1.000
mitoOX (composite Z-score) ([8]; Conc 20 μM): 0.074

CC(C)CCC[C@@H](C)[C@H]1CC[C@H]2[C@@H]3CCC4CCCC[C@]4(C)[C@H]3CC[C@]12C (stereo partly shown) [cholestane]
GE-HTS [1, 14]: −0.678
MTT [2, 14]: −1.057
Viability [3, 14]: 0.941
nucOX [4, 14]: −0.651
cyt c [5, 14]: 0.043
ΔΨm [6, 14]: −0.945
ROS [7, 14]: 0.155
mitoOX [8, 14]: −0.640

CC(C)CCC[C@@H](C)C1CC[C@H]2[C@@H]3CCC4CC(=O)CC[C@]4(C)[C@H]3CC[C@]12C (stereo partly shown) [cholestanone]
GE-HTS (composite Z-score) ([1]; Conc 20 μM): 0.165
MTT (composite Z-score) ([2]; Conc 20 μM): −2.192
Viability (composite Z-score) ([3]; Conc 20 μM): −0.208
nucOX (composite Z-score) ([4]; Conc 20 μM): 0.147
cyt c (composite Z-score) ([5]; Conc 20 μM): 0.272
ΔΨm (composite Z-score) ([6]; Conc 20 μM): −1.065
ROS (composite Z-score) ([7]; Conc 20 μM): 1.864
mitoOX (composite Z-score) ([8]; Conc 20 μM): 0.214

CC(=O)O[C@H]1CC[C@@]2(C)C(=CC[C@H]3[C@@H]4CC[C@H]([C@H](C)CCCC(C)C)[C@@]4(C)CC[C@@H]32)C1 [cholesteryl acetate]
GE-HTS [1, 14]: 0.228
MTT [2, 14]: −2.138
Viability [3, 14]: −1.471
nucOX [4, 14]: 0.273
cyt c [5, 14]: 0.097
ΔΨm [6, 14]: −0.657
ROS [7, 14]: 0.524
mitoOX [8, 14]: 0.142

COC(=O)CC[C@@H](C)[C@H]1CC[C@H]2[C@@H]3[C@H](O)C[C@@H]4C[C@H](O)CC[C@]4(C)[C@H]3C[C@H](O)[C@]12C [cholic acid, methyl ester]
GE-HTS [1, 13]: −0.751
MTT [2, 13]: −1.021
Viability [3, 13]: −0.383
nucOX [4, 13]: −0.852
cyt c [5, 13]: 0.018
ΔΨm [6, 13]: 0.065
ROS [7, 13]: 0.295
mitoOX [8, 13]: −0.394

N[C@H]1C(O)O[C@H](CO)[C@H](O)[C@@H]1O[C@@H]1O[C@H](C(=O)O)[C@@H](O)[C@H](O)[C@H]1O (stereo partly shown) [chondrosine]
GE-HTS [1, 14]: −0.743
MTT [2, 14]: −1.759
Viability [3, 14]: −0.800
nucOX [4, 14]: −0.782
cyt c [5, 14]: 0.040
ΔΨm [6, 14]: −1.001
ROS [7, 14]: 0.741
mitoOX [8, 14]: −0.476

CC1OC(OC2C(O)COC(OC3C(C)OC(OC4C(OC(=O)C56CCC(C)(C)CC5C5=CCC7C8(C)CCC(OC9OC(CO)C(O)C(O)C9O)C(C)(C)C8CCC7(C)C5(C)CC6O)OCC(O)C4O)C(O)C3O)C2O)C(O)C(O)C1O (stereo not shown) [chrysanthellin A]
GE-HTS [1, 13]: −0.126
MTT [2, 13]: −4.661
Viability [3, 13]: −4.075
nucOX [4, 13]: −0.394
cyt c [5, 13]: −4.088
ΔΨm [6, 13]: −1.860
ROS [7, 13]: −1.565
mitoOX [8, 13]: 0.474

CC(C)=CC1C(CO)C1(C)C (stereo not shown) [chrysanthemyl alcohol]
GE-HTS [1, 13]: 0.456
MTT [2, 13]: −0.004
Viability [3, 13]: 0.604
nucOX [4, 13]: 0.495
cyt c [5, 13]: 0.264
ΔΨm [6, 13]: −0.734
ROS [7, 13]: 0.345
mitoOX [8, 13]: 0.331

Cc1cc(O)c2c(O)c3c(O)cccc3cc2c1 [chrysarobin]
GE-HTS [1, 15]: −1.153
MTT [2, 15]: −1.646
Viability [3, 15]: −0.685
nucOX [4, 15]: −1.387
cyt c [5, 15]: −0.074
ΔΨm [6, 15]: −0.726
ROS [7, 15]: 0.805
mitoOX [8, 15]: −0.401

COc1cc(OC)c2c(=O)cc(-c3ccccc3)oc2c1 [chrysin dimethyl ether]
GE-HTS (composite Z-score) ([1]; Conc 20 μM): 0.480
MTT (composite Z-score) ([2]; Conc 20 μM): −1.043
Viability (composite Z-score) ([3]; Conc 20 μM): −0.006
nucOX (composite Z-score) ([4]; Conc 20 μM): 0.444
cyt c (composite Z-score) ([5]; Conc 20 μM): −1.016
ΔΨm (composite Z-score) ([6]; Conc 20 μM): 0.541
ROS (composite Z-score) ([7]; Conc 20 μM): 1.158
mitoOX (composite Z-score) ([8]; Conc 20 μM): 0.470

O=c1cc(-c2ccccc2)oc2cc(O)cc(O)c12 [chrysin]
GE-HTS [1, 10]: −0.137
MTT [2, 10]: −1.566
Viability [3, 10]: −0.802
nucOX [4, 10]: 0.071
cyt c [5]: 0.920
cyt c [5, 10]: 0.655
ΔΨm [6, 10]: −0.941
ROS [7, 10]: 0.949
mitoOX [8, 10]: −0.552

COC(=O)C[C@H]1C2(C)CC34OC5(C)O[C@@]6([C@H](OC)C(OC(=O)C(C)C)[C@]7(C)C(/C(=C(/OC)C(C)C)C(=O)O[C@H]7c7ccoc7)[C@@]6(O5)[C@H](OC)[C@@]3(OC)C2OC(C)=O)[C@]14C (stereo partly shown) [chukrasin methyl ether]
GE-HTS [1, 15]: 0.352
MTT [2, 15]: −0.818
Viability [3, 15]: −0.822
nucOX [4, 15]: 0.417
cyt c [5, 15]: −0.248
ΔΨm [6, 15]: −1.084
ROS [7, 15]: 0.777
mitoOX [8, 15]: 0.198

Oc1cc(O)c2c(c1)O[C@H](c1ccc(O)c(O)c1)[C@@H](O)C2 [cianidanol, reference compound]
GE-HTS [1, 10]: −0.113
MTT [2, 10]: −1.471
Viability [3, 10]: 0.630
nucOX [4, 10]: −0.357
cyt c [5, 10]: 0.639
ΔΨm [6, 10]: −1.746
ROS [7, 10]: −0.371
mitoOX [8, 10]: 0.347

Cc1cc(C2CCCCC2)n(O)c(=O)c1 [ciclopirox olamine]
GE-HTS [1, 11]: −0.965
MTT [2, 11]: −3.390
Viability [3, 11]: −1.409
nucOX [4, 11]: −1.098
cyt c [5, 11]: −0.381
ΔΨm [6, 11]: 2.355
ROS [7, 11]: −1.545
mitoOX [8, 11]: −0.569

CC1=C2C(=CO[C@H](C)[C@H]2C)C(O)=C(C(=O)O)C1=O [citrinin]
GE-HTS [1, 10]: 0.608
MTT [2, 10]: −0.980
Viability [3, 10]: −0.040
nucOX [4, 10]: 0.730
cyt c [5, 10]: 0.012
ΔΨm [6, 10]: −0.590
ROS [7, 10]: 0.122
mitoOX [8, 10]: 0.218

CC[C@H]1OC(=O)[C@H](C)[C@@H](O[C@H]2C[C@@](C)(OC)[C@@H](O)[C@H](C)O2)[C@H](C)[C@@H](O[C@@H]2O[C@H](C)C[C@H](N(C)C)[C@H]2O)[C@](C)(OC)C[C@@H](C)C(=O)[C@H](C)[C@@H](O)[C@]1(C)O [clarithromycin]
GE-HTS [1, 14]: −2.161
MTT [2, 14]: −1.086
Viability [3, 14]: −0.763
nucOX [4, 14]: −2.046
cyt c [5, 14]: −1.095
ΔΨm [6, 14]: 0.434
ROS [7, 14]: 0.293
mitoOX [8, 14]: −1.928

CC(C)(C)NCC(O)c1cc(Cl)c(N)c(Cl)c1 (stereo not shown) [clenbuterol]
GE-HTS [1, 16]: 0.054
MTT [2, 16]: −1.330
Viability [3, 16]: 0.134
nucOX [4, 16]: 0.063
cyt c [5, 16]: −0.261
ΔΨm [6, 16]: −1.139
ROS [7, 16]: 0.914
mitoOX [8, 16]: 0.011
